Assay results as given in article PMC7562955 (Nature Communications, 2020).

Target: T1, TLR7 (Homo sapiens, UniProt Q9NYK1)
T1 sequence (Q9NYK1 27-1049): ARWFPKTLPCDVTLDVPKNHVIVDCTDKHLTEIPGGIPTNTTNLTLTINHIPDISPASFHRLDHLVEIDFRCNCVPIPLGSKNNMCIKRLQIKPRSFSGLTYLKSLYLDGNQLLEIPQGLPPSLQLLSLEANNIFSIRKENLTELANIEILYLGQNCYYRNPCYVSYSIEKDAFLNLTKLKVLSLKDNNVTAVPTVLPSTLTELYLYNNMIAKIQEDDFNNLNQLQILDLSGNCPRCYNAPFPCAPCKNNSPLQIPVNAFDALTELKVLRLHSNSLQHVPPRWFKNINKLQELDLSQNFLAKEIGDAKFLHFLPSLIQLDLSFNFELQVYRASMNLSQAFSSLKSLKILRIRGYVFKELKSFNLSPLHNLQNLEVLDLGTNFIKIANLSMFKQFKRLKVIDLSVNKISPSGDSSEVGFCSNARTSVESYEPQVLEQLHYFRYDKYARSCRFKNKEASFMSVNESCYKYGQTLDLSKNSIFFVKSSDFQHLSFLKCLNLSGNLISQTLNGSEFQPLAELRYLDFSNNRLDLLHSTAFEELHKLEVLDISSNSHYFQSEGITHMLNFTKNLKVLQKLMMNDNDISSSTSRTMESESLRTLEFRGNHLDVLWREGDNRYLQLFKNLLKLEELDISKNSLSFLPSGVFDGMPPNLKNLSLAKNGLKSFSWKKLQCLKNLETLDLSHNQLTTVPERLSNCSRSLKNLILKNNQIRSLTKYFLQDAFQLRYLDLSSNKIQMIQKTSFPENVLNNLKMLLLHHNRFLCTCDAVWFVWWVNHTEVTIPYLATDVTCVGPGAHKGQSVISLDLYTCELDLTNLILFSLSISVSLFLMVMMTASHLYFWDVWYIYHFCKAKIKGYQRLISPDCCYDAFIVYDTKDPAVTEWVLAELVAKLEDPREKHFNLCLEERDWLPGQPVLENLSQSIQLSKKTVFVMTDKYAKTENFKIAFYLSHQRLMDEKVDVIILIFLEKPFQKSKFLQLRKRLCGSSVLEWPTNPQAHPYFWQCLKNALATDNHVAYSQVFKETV
Assay: Dose-response relationship between antagonist and R848, human TLR7 reporter gene assay
Assay type: cell-based
Parameters: host or cells: HEK293 (TLR7/NF-κB/SEAPorter)
Protocol: Compounds were dissolved in dimethyl sulfoxide. Human TLR7 reporter cell line (Novus Biological) were seeded in 96-well microtiter plate (AGC techno glass) at 5 × 10^4 cells/well in DMEM (GIBCO) with 10% fetal bovine serum (GIBCO), and 10 μg ml^−1 Blastcidin S HCl (GIBCO) and incubated at 37 °C in 5% CO2. The plates were incubated over-night and then addition with various concentrations of compound. After 30 min, R848 (human TLR7/8 ligand) that was diluted with the medium was added, wherein final concentration was adjusted to 0.01, 0.03, 0.1, 0.3, 1, 3, 10, 30, 100, 300 and 1000 μM. The plates were then incubated an additional 20 ± 1 h at 37 °C in 5% CO2, and then the SEAP activity was measured as activation of human TLR7. The SEAP activity was evaluated as follows: pNPP (Invitrogen) was added to the incubated sample (50 μl/well); after 15 min, 4 mol l^−1 sodium hydroxide solution (nacalai tesque) was added thereto (50 μl/well) to quench the reaction; and the absorbance of each sample was measured at 405 nm with microplate reader SpectraMax M4 (Molecular Devices).

CCOc1nc(C)c2nc(-c3cncc(F)c3)n(Cc3ccc(CN4C[C@@H]5C[C@H]4CN5C)cc3)c2n1 [Cpd-7]
mode of action against R848: acted as antagonists
TLR7 reporter signal (Cpd-7 0.001 µM, log10[R848 (µM)] 0): 15.1994
TLR7 reporter signal (Cpd-7 0.001 µM, log10[R848 (µM)] 0.477121): 53.0748
TLR7 reporter signal (Cpd-7 0.001 µM, log10[R848 (µM)] 1): 91.3639
TLR7 reporter signal (Cpd-7 0.001 µM, log10[R848 (µM)] 1.47712): 103.082
TLR7 reporter signal (Cpd-7 0.001 µM, log10[R848 (µM)] 2): 104.508
TLR7 reporter signal (Cpd-7 0.001 µM, log10[R848 (µM)] 2.47712): 104.681
TLR7 reporter signal (Cpd-7 0.001 µM, log10[R848 (µM)] 3): 101.38
TLR7 reporter signal (Cpd-7 0.001 µM, log10[R848 (µM)] -0.522879): 2.983
TLR7 reporter signal (Cpd-7 0.001 µM, log10[R848 (µM)] -1): 1.3957
TLR7 reporter signal (Cpd-7 0.001 µM, log10[R848 (µM)] -1.52288): 1.22
TLR7 reporter signal (Cpd-7 0.001 µM, log10[R848 (µM)] -2): 0.09581
TLR7 reporter signal (Cpd-7 0.003 µM, log10[R848 (µM)] 0): 11.9465
TLR7 reporter signal (Cpd-7 0.003 µM, log10[R848 (µM)] 0.477121): 48.0206
TLR7 reporter signal (Cpd-7 0.003 µM, log10[R848 (µM)] 1): 90.4952
TLR7 reporter signal (Cpd-7 0.003 µM, log10[R848 (µM)] 1.47712): 102.689
TLR7 reporter signal (Cpd-7 0.003 µM, log10[R848 (µM)] 2): 104.173
TLR7 reporter signal (Cpd-7 0.003 µM, log10[R848 (µM)] 2.47712): 102.967
TLR7 reporter signal (Cpd-7 0.003 µM, log10[R848 (µM)] 3): 101.934
TLR7 reporter signal (Cpd-7 0.003 µM, log10[R848 (µM)] -0.522879): 2.073
TLR7 reporter signal (Cpd-7 0.003 µM, log10[R848 (µM)] -1): 1.332
TLR7 reporter signal (Cpd-7 0.003 µM, log10[R848 (µM)] -1.52288): 1.335
TLR7 reporter signal (Cpd-7 0.003 µM, log10[R848 (µM)] -2): -0.4152
TLR7 reporter signal (Cpd-7 0.01 µM, log10[R848 (µM)] 3): 101.214
TLR7 reporter signal (Cpd-7 0.1 µM, log10[R848 (µM)] 0): 3.483
TLR7 reporter signal (Cpd-7 0.1 µM, log10[R848 (µM)] 0.477121): 8.9858
TLR7 reporter signal (Cpd-7 0.1 µM, log10[R848 (µM)] 1): 46.2209
TLR7 reporter signal (Cpd-7 0.1 µM, log10[R848 (µM)] 1.47712): 89.5722
TLR7 reporter signal (Cpd-7 0.1 µM, log10[R848 (µM)] 2): 103.066
TLR7 reporter signal (Cpd-7 0.1 µM, log10[R848 (µM)] 2.47712): 105.195
TLR7 reporter signal (Cpd-7 0.1 µM, log10[R848 (µM)] 3): 99.2702
TLR7 reporter signal (Cpd-7 0.1 µM, log10[R848 (µM)] -0.522879): 1.691
TLR7 reporter signal (Cpd-7 0.1 µM, log10[R848 (µM)] -1): 1.377
TLR7 reporter signal (Cpd-7 0.1 µM, log10[R848 (µM)] -1.52288): 1.495
TLR7 reporter signal (Cpd-7 0.1 µM, log10[R848 (µM)] -2): -0.1134
TLR7 reporter signal (Cpd-7 0.3 µM, log10[R848 (µM)] 0): 1.803
TLR7 reporter signal (Cpd-7 0.3 µM, log10[R848 (µM)] 0.477121): 3.628
TLR7 reporter signal (Cpd-7 0.3 µM, log10[R848 (µM)] 1): 15.5922
TLR7 reporter signal (Cpd-7 0.3 µM, log10[R848 (µM)] 1.47712): 56.9825
TLR7 reporter signal (Cpd-7 0.3 µM, log10[R848 (µM)] 2): 94.1266
TLR7 reporter signal (Cpd-7 0.3 µM, log10[R848 (µM)] 2.47712): 104.981
TLR7 reporter signal (Cpd-7 0.3 µM, log10[R848 (µM)] 3): 99.9984
TLR7 reporter signal (Cpd-7 0.3 µM, log10[R848 (µM)] -0.522879): 2.988
TLR7 reporter signal (Cpd-7 0.3 µM, log10[R848 (µM)] -1): 1.0827
TLR7 reporter signal (Cpd-7 0.3 µM, log10[R848 (µM)] -1.52288): 0.3928
TLR7 reporter signal (Cpd-7 0.3 µM, log10[R848 (µM)] -2): -0.2667
TLR7 reporter signal (Cpd-7 1 µM, log10[R848 (µM)] 0): 1.865
TLR7 reporter signal (Cpd-7 1 µM, log10[R848 (µM)] 0.477121): 1.87
TLR7 reporter signal (Cpd-7 1 µM, log10[R848 (µM)] 1): 3.318
TLR7 reporter signal (Cpd-7 1 µM, log10[R848 (µM)] 1.47712): 15.4645
TLR7 reporter signal (Cpd-7 1 µM, log10[R848 (µM)] 2): 58.664
TLR7 reporter signal (Cpd-7 1 µM, log10[R848 (µM)] 2.47712): 94.6679
TLR7 reporter signal (Cpd-7 1 µM, log10[R848 (µM)] 3): 98.5819
TLR7 reporter signal (Cpd-7 1 µM, log10[R848 (µM)] -0.522879): 2.201
TLR7 reporter signal (Cpd-7 1 µM, log10[R848 (µM)] -1): 1.343
TLR7 reporter signal (Cpd-7 1 µM, log10[R848 (µM)] -1.52288): 0.6276
TLR7 reporter signal (Cpd-7 1 µM, log10[R848 (µM)] -2): -0.3625
TLR7 reporter signal (Cpd-7 3 µM, log10[R848 (µM)] 0): 1.3957
TLR7 reporter signal (Cpd-7 3 µM, log10[R848 (µM)] 0.477121): 2.034
TLR7 reporter signal (Cpd-7 3 µM, log10[R848 (µM)] 1): 1.935
TLR7 reporter signal (Cpd-7 3 µM, log10[R848 (µM)] 1.47712): 4.379
TLR7 reporter signal (Cpd-7 3 µM, log10[R848 (µM)] 2): 17.1093
TLR7 reporter signal (Cpd-7 3 µM, log10[R848 (µM)] 2.47712): 59.4864
TLR7 reporter signal (Cpd-7 3 µM, log10[R848 (µM)] 3): 88.3569
TLR7 reporter signal (Cpd-7 3 µM, log10[R848 (µM)] -0.522879): 2.494
TLR7 reporter signal (Cpd-7 3 µM, log10[R848 (µM)] -1): 1.782
TLR7 reporter signal (Cpd-7 3 µM, log10[R848 (µM)] -1.52288): 0.9374
TLR7 reporter signal (Cpd-7 3 µM, log10[R848 (µM)] -2): -0.1469
TLR7 reporter signal (Cpd-7 10 µM, log10[R848 (µM)] 0): 1.161
TLR7 reporter signal (Cpd-7 10 µM, log10[R848 (µM)] 0.477121): 1.935
TLR7 reporter signal (Cpd-7 10 µM, log10[R848 (µM)] 1): 1.487
TLR7 reporter signal (Cpd-7 10 µM, log10[R848 (µM)] 1.47712): 2.632
TLR7 reporter signal (Cpd-7 10 µM, log10[R848 (µM)] 2): 3.275
TLR7 reporter signal (Cpd-7 10 µM, log10[R848 (µM)] 2.47712): 13.6775
TLR7 reporter signal (Cpd-7 10 µM, log10[R848 (µM)] 3): 50.3984
TLR7 reporter signal (Cpd-7 10 µM, log10[R848 (µM)] -0.522879): 2.055
TLR7 reporter signal (Cpd-7 10 µM, log10[R848 (µM)] -1): 1.301
TLR7 reporter signal (Cpd-7 10 µM, log10[R848 (µM)] -1.52288): 0.4759
TLR7 reporter signal (Cpd-7 10 µM, log10[R848 (µM)] -2): -0.6883
TLR7 reporter signal (Cpd-7 30 µM, log10[R848 (µM)] 0): 1.6017
TLR7 reporter signal (Cpd-7 30 µM, log10[R848 (µM)] 0.477121): 2.2708
TLR7 reporter signal (Cpd-7 30 µM, log10[R848 (µM)] 1): 2.316
TLR7 reporter signal (Cpd-7 30 µM, log10[R848 (µM)] 1.47712): 3.334
TLR7 reporter signal (Cpd-7 30 µM, log10[R848 (µM)] 2): 2.078
TLR7 reporter signal (Cpd-7 30 µM, log10[R848 (µM)] 2.47712): 2.285
TLR7 reporter signal (Cpd-7 30 µM, log10[R848 (µM)] 3): 8.593
TLR7 reporter signal (Cpd-7 30 µM, log10[R848 (µM)] -0.522879): 2.676
TLR7 reporter signal (Cpd-7 30 µM, log10[R848 (µM)] -1): 1.493
TLR7 reporter signal (Cpd-7 30 µM, log10[R848 (µM)] -1.52288): 0.7617
TLR7 reporter signal (Cpd-7 30 µM, log10[R848 (µM)] -2): -0.5701
TLR7 reporter signal (Cpd-7 100 µM, log10[R848 (µM)] 0): 1.319
TLR7 reporter signal (Cpd-7 100 µM, log10[R848 (µM)] 0.477121): 2.528
TLR7 reporter signal (Cpd-7 100 µM, log10[R848 (µM)] 1): 1.127
TLR7 reporter signal (Cpd-7 100 µM, log10[R848 (µM)] 1.47712): 2.558
TLR7 reporter signal (Cpd-7 100 µM, log10[R848 (µM)] 2): 1.63
TLR7 reporter signal (Cpd-7 100 µM, log10[R848 (µM)] 2.47712): 1.53
TLR7 reporter signal (Cpd-7 100 µM, log10[R848 (µM)] 3): 0.3114
TLR7 reporter signal (Cpd-7 100 µM, log10[R848 (µM)] -0.522879): 1.865
TLR7 reporter signal (Cpd-7 100 µM, log10[R848 (µM)] -1): 1.004
TLR7 reporter signal (Cpd-7 100 µM, log10[R848 (µM)] -1.52288): 0.5685
TLR7 reporter signal (Cpd-7 100 µM, log10[R848 (µM)] -2): -0.7138
